Data published in PMC9025336 (Antibiotics, 2022).
Values after ≈ are worked out from the molar mass of the structure shown. Peptide text beside a SMILES is read from it. * marks the point of attachment. Orn(α-tetramethylguanidino) = CN(C)C(=N[C@@H](CCCN)C(=O)*)N(C)C

How the values were obtained:
[1] = tested on: E. coli Rosetta DE3 pLysS; test: MIC, liquid broth microdilution; assay type: cell-based, Escherichia coli; settings: 25% MHBII medium, 7.5 × 10^6 CFU/mL, 37 °C, 20 ± 2 h, turbidity 600 nm, at least twice in triplicate
Method: (§1) The minimal inhibitory concentrations (MIC) were determined at least twice in triplicate using a liquid broth microdilution assay in sterile 96-well plates and a total volume of 100 μL per well. Aqueous peptide solutions were serially 2-fold diluted in 25% MHBII or 33% TSB medium in a volume of 50 µL. An overnight culture was diluted in 25% MHBII or 33% TSB medium to 1.5 × 10^7 CFU/mL, and an aliquot of 50 μL was added to each well. The final cell count in each well was 7.5 × 10^6 CFU/mL. The plates were incubated at 37 °C for 20 ± 2 h. The turbidity of each well was measured at a wavelength of 600 nm. The MIC was defined as the lowest peptide concentration where the turbidity was identical to medium only.

[2] = tested on: in vitro protein translation (GFP expression); test: In vitro translation assay (GFP fluorescence, PureExpress Delta RF123 kit); assay type: biochemical, Escherichia coli
Method: Next, we investigated whether Api805 inhibits protein translation in vitro by recording the fluorescence of expressed GFP (Figure 2). As Api137 inhibits protein translation by trapping release factors RF1 and RF2, the fluorescence was measured in the absence of release factor and in the presence of RF1 or RF2. We used a ribosome concentration of 2.4 µmol/L, which is ~[…] than the ribosome concentration in E. coli. […] Furthermore, RF2 of PureExpress® was isolated from an E. coli K-12 strain that carries an A246T substitution, reducing its susceptibility to apidaecin [15, 23]. The inhibition was measured for peptide concentrations of 0.05, 5, and 50 µmol/L relative to the fluorescence obtained without a PrAMP (100%).
GFP was expressed using an NEB PureExpress Delta RF123 kit (New England Biolabs, Ipswich, MA, USA). The sfGFP DNA template coding for a UAA stop codon was amplified from the pY71sfGFP plasmid by PCR using sfGFP primers (Table S3). Release factor 1 (RF1) included in the kit was 50-fold diluted (v/v) in freshly prepared 1x pure system buffer (PSB, 1 mol/L magnesium acetate, 0.5 mol/L K3PO4 (pH 7.3), 1 mol/L potassium glutamate, 1 mol/L NH4Cl, 0.5 mol/L CaCl2, 1 mol/L spermidine, 0.1 mol/L putrescine, 0.1 mol/L DTT). GFP was expressed in a freshly prepared mixture of kit solution A (2 µL), kit solution B (1.5 µL), 50-fold diluted RF1 (0.5 µL), sfGFP template (0.1325 pmol, 35 ng) or water as control (0.25 µL), PSB (0.25 µL), and PrAMP (50, 5, 0.05 or 0 µmol/L) dissolved in water (0.5 µL). The reaction mixture was transferred into a black 384-well plate (flat bottom, Greiner Bio-One GmbH), covered with a lid, and incubated in a microplate reader (Gemini EM, Molecular Devices) at 37 °C for two hours. The fluorescence was recorded every 10 min (λexc = 485 nm, λem = 535 nm).

[3] = molecular target: BW25113 ribosome extract, ribosomal binding site of Onc112; test: Fluorescence polarization competition against cf-Onc112 (Ki); design: species or system Escherichia coli; settings: unlabeled PrAMP against cf-labeled Onc112, calculated from IC50, 95% confidence interval in brackets
Method: (§2) E. coli BW25113 and E. coli Rosetta pLysS were cultivated in LB medium and harvested at an OD600 of ~4 by centrifugation (5000× g, 30 min, 4 °C). The cell pellets were washed by resuspension in ribosome preparation buffer (20 mmol/L Hepes-KOH, 6 mmol/L MgCl2, 30 mmol/L NH4Cl, pH 7.6, 4°C) and subsequent centrifugation (5000× g, 30 min, 4 °C). Cell pellets were suspended in ribosome preparation buffer ([…]) containing freshly added 2-mercapotethanol (4 mmol/L). Lysozyme was added to the resuspended cells and incubated on ice for 30 min. The cell suspension was disrupted six times using a FastPrep-24^TM 5G instrument (MP Biomedicals, Solon, OH, USA) with BigPrep 50 mL setting (40 s, 4.0 m/s), incubated with DNase I (5 mL/L) on ice for one hour and centrifuged (16,000× g, 30 min, 4 °C). The cell debris was removed from the supernatant by centrifugation (32,000× g, 60 min, 4 °C), and the supernatant was centrifuged again (165,000× g, 17 h, 4 °C). The pellet was resuspended in ribosome preparation buffer (0.1 mL per g cell pellet) to obtain the 70S ribosome extract and stored at −80 °C. The ribosome concentration was estimated by recording the absorbance at 260 nm (1 AU for a ribosome concentration of 28 nmol/L). The molecular weight of the 70S E. coli ribosome was assumed to be 2.3 MDa.
(§3) Ki was determined for ribosome extracts using cf-labeled and unlabeled peptides in ribosome preparation buffer. Black 384-well plates were prepared as described above. Unlabeled peptides or antibiotics (20 µL, 656 µmol/L) were added and 2-fold serially diluted in 23 wells in ribosome preparation buffer. A ribosome solution was prepared by adjusting the ribosome concentration to ~90% of the upper Kd plateau obtained for the cf-labeled peptide to be studied and added to each well (10 µL). […] The fluorescence polarization was measured on a PARADIGMTM microplate reader in the top read position (λexc = 485 nm, λem = 535 nm) in triplicate on at least two different days. […] Inhibition constants, Ki, were calculated as described by Mathias and Jung.

[4] = tested on: E. coli BW25113 ΔsbmA +psbmA_A31G/G219T; assay type: cell-based, Escherichia coli
Method: as §1

[5] = molecular target: BW25113 ribosome extract, ribosomal binding site of Api137; test: Fluorescence polarization competition against cf-Api137 (Ki); design: species or system Escherichia coli; settings: unlabeled PrAMP against cf-labeled Api137, calculated from IC50, 95% confidence interval in brackets
Method: as §2, §3

[6] = highest peptide concentration (50 µmol/L), relative to fluorescence without PrAMP, 37 °C, 2 h, twice in duplicate

| SMILES | MIC, Ros [1] | inhibition of protein translation in the absence of RF1 [2, 6] | inhibition of protein translation in the presence of RF1 [2, 6] | Ki [3] | change of MIC after transformation of sbmA_A31G/G219T-harboring plasmid ([4]; compared with E. coli BW25113 ΔsbmA) | Ki [5] | inhibition of protein translation in the absence of RF1, in words ([2]; GFP fluorescence, Figure 2) | MIC, 25% MHBII ([4]; BW25113 ΔsbmA +psbmA_A31G/G219T, 25% MHBII containing IPTG (0.1 mmol/L)) | MIC, 33% TSB ([4]; BW25113 ΔsbmA +psbmA_A31G/G219T, 33% TSB containing IPTG (0.1 mmol/L)) |
| --- | --- | --- | --- | --- | --- | --- | --- | --- | --- |
| CC[C@H](C)[C@H](NC(=O)[C@H](Cc1ccc(O)cc1)NC(=O)[C@@H](NC(=O)[C@@H]1CCCN1C(=O)[C@H](CCCNC(=N)N)NC(=O)[C@H](CC(N)=O)NC(=O)[C@H](CC(N)=O)NC(=O)[C@H](CCCN)N=C(N(C)C)N(C)C)C(C)C)C(=O)N1CCC[C@H]1C(=O)N[C@@H](CCCNC(=N)N)C(=O)N1CCC[C@H]1C(=O)N[C@@H](CCCNC(=N)N)C(=O)N1CCC[C@H]1C(=O)N1CCC[C@H]1C(=O)N[C@@H](Cc1c[nH]cn1)C(=O)N1CCC[C@H]1C(=O)N[C@@H](CCCNC(=N)N)C(=O)N[C@@H](CC(C)C)C(N)=O [Api88] ({Orn(α-tetramethylguanidino)}-NNRPVYIPRPRPPHPRL-NH2) | 1 µg/mL (≈ 0.437 µM) | – | – | – | – | – | – | – | – |
| CC[C@H](C)[C@H](NC(=O)[C@@H]1CCCN1C(=O)[C@H](CCCNC(=N)N)NC(=O)[C@H](CC(N)=O)NC(=O)[C@H](CC(N)=O)NC(=O)CN)C(=O)N[C@@H](Cc1ccc(O)cc1)C(=O)N[C@H](C(=O)N1CCC[C@H]1C(=O)N[C@@H](CCCNC(=N)N)C(=O)N1CCC[C@H]1C(=O)N[C@@H](CCCNC(=N)N)C(=O)N1CCC[C@H]1C(=O)N1CCC[C@H]1C(=O)N[C@@H](Cc1c[nH]cn1)C(=O)N1CCC[C@H]1C(=O)N[C@@H](CCCNC(=N)N)C(=O)N1CCC[C@H]1C(=O)N[C@H](C(=O)N[C@@H](CCCNC(=N)N)C(=O)N[C@H](C(=O)O)C(C)C)[C@@H](C)CC)[C@@H](C)CC [Api805] (H-GNNRPIYIPRPRPPHPRPIRV-OH; N-terminus assumed) | – | ~ 38% | ~ 52% | 0.489 µM | not altered | 1.07 µM | – | – | – |
| CC[C@H](C)[C@H](NC(=O)[C@H](Cc1ccc(O)cc1)NC(=O)[C@@H](NC(=O)[C@@H]1CCCN1C(=O)[C@H](CCCNC(=N)N)NC(=O)[C@H](CC(N)=O)NC(=O)[C@H](CC(N)=O)NC(=O)[C@H](CCCN)N=C(N(C)C)N(C)C)C(C)C)C(=O)N1CCC[C@H]1C(=O)N[C@@H](CCCNC(=N)N)C(=O)N1CCC[C@H]1C(=O)N[C@@H](CCCNC(=N)N)C(=O)N1CCC[C@H]1C(=O)N1CCC[C@H]1C(=O)N[C@@H](Cc1c[nH]cn1)C(=O)N1CCC[C@H]1C(=O)N[C@@H](CCCNC(=N)N)C(=O)N[C@@H](CC(C)C)C(=O)O [Api137] ({Orn(α-tetramethylguanidino)}-NNRPVYIPRPRPPHPRL-OH) | 2 µg/mL (≈ 0.873 µM) | – | ~ 77% | 0.219 µM | – | 0.002 µM | only a slight inhibition | 2 µg/mL (≈ 0.873 µM) | 8 µg/mL (≈ 3.49 µM) |
